# Test results reported in patent US8822506B2, “Use of succinate dehydrogenase inhibitors for controlling powdery mildew primary infections” (Bayer Cropscience AG, priority 2009, dated 2014).
# Legend:
# Assay type in all cases: in vivo, Podosphera leucotricha
# Powdery mildew [1] = experiment: Apple orchard field trial, powdery mildew secondary infections on leaves (incidence), assessed 10 days after application 8; settings: for 10DAT8 [% infested leaves] / 10DAT8 [% efficacy] (Abbott): apples, 10 days after application 8; for 10DAT8 [% infested leaves]: 8 applications at 10-day interval, untreated 96; for 10DAT8 [% efficacy] (Abbott): 8 applications, infested leaves
# Procedure: (§1) Fluopyram was tested in apples orchard in comparison with already know fungicides active against Powdery mildew such as triadimenol (Bayleton) and boscalid.
# (§2) Fluopyram was applied at range of rates: 18.5 g-25 g-37.5-50 g a.s./ha/meter canopy height (g ha/m c.h.). Bayleton was applied at 25 g a.s./ha/m c.h. Boscalid (Cantus WG50) was applied at 125 g a.s./m c.h.
# (§3) During the spray season, the compounds were applied at apple susceptible stages from BBCH09 (green leaf tips 5 mm above bud scales to BBCH73 Fruit size between 20 and 40 mm (as described in BBCH Monograph, 2. Edition, 2001, edited by Uwe Meier, Federal Biological Research Centre for Agriculture and Forestry) in order to protect leaves, buds and shoots against Powdery mildew. The compounds have been applied eight times with an interval of ten days during spray season.
# (§4) The type of assessments of infections was: • % infested area on leaves (severity) and % infested leaves (incidence) were assessed 10 days after application 8 (10DAT8). • Count and % infested shoots (primary infection) were assessed 345 days after application 8 (345 DAT8). Results
# Powdery mildew [2] = experiment: Apple orchard field trial, powdery mildew primary infection of shoots in the following year, assessed 345 days after application 8; settings: apples, 8 applications; for 345DAT8 [% infested shoots]: 345 days after application 8, no other application, untreated 45.2; for 345DAT8 [% efficacy] (Abbott): 345 days after application 8, infested shoots
# Procedure: as §1, §2, §3, §4
# Powdery mildew [3] = experiment: as above; settings: proximate year (assessment 345DAT8), without any other application; dose rate relation, 18.5 to 50 g a.s./m c.h.
smiles,measurement,setting,value
"O=C(Nc1ccccc1-c1ccc(Cl)cc1)c1cccnc1Cl [Boscalid, 2-chloro-N-(4′-chlorobiphenyl-2-yl)nicotinamide]",10DAT8 [% infested leaves],Powdery mildew [1]; 125 g a.s./ha/m c.h.,46%
same,10DAT8 [% efficacy] (Abbott),Powdery mildew [1]; 125 g a.s./ha/m c.h.,52.1%
same,345DAT8 [% infested shoots],Powdery mildew [2]; 125 g a.s./ha/m c.h.,30.8%
same,345DAT8 [% efficacy] (Abbott),Powdery mildew [2]; 125 g a.s./ha/m c.h.,31.7%
"O=C(NCCc1ncc(C(F)(F)F)cc1Cl)c1ccccc1C(F)(F)F [Fluopyram, N-{2-[3-chloro-5-(trifluoromethyl)-2-pyridinyl]ethyl}-2-(trifluoromethyl)benzamide]",10DAT8 [% infested leaves],Powdery mildew [1]; 18.5 g a.s./ha/m c.h.,8.7%
same,10DAT8 [% efficacy] (Abbott),Powdery mildew [1]; 18.5 g a.s./ha/m c.h.,91%
same,10DAT8 [% infested leaves],Powdery mildew [1]; 25 g a.s./ha/m c.h.,10%
same,10DAT8 [% efficacy] (Abbott),Powdery mildew [1]; 25 g a.s./ha/m c.h.,89.6%
same,10DAT8 [% infested leaves],Powdery mildew [1]; 37.5 g a.s./ha/m c.h.,2.7%
same,10DAT8 [% efficacy] (Abbott),Powdery mildew [1]; 37.5 g a.s./ha/m c.h.,97.2%
same,10DAT8 [% infested leaves],Powdery mildew [1]; 50 g a.s./ha/m c.h.,0.7%
same,10DAT8 [% efficacy] (Abbott),Powdery mildew [1]; 50 g a.s./ha/m c.h.,99.3%
same,efficacy against powdery mildew on apples against secondary infections (in words),"Powdery mildew [1]; assessment 10DAT8, 18.5 g to 50 g a.s./m c.h., visible dose rate effect, superior to triadimenol and boscalid from the lowest rate",excellent efficacy
same,level of infection measured by the % of primary infested shoots (in words),Powdery mildew [3],high decrease of infestation
same,345DAT8 [% infested shoots],Powdery mildew [2]; 18.5 g a.s./ha/m c.h.,17.7%
same,345DAT8 [% efficacy] (Abbott),Powdery mildew [2]; 18.5 g a.s./ha/m c.h.,60.9%
same,345DAT8 [% infested shoots],Powdery mildew [2]; 25 g a.s./ha/m c.h.,14%
same,345DAT8 [% efficacy] (Abbott),Powdery mildew [2]; 25 g a.s./ha/m c.h.,69%
same,345DAT8 [% infested shoots],Powdery mildew [2]; 37.5 g a.s./ha/m c.h.,13%
same,345DAT8 [% efficacy] (Abbott),Powdery mildew [2]; 37.5 g a.s./ha/m c.h.,71.2%
same,345DAT8 [% infested shoots],Powdery mildew [2]; 50 g a.s./ha/m c.h.,9%
same,345DAT8 [% efficacy] (Abbott),Powdery mildew [2]; 50 g a.s./ha/m c.h.,80.1%
CC(C)(C)C(O)C(Oc1ccc(Cl)cc1)n1cncn1 (centres unmarked) [Triadimenol],10DAT8 [% infested leaves],Powdery mildew [1]; 25 g a.s./ha/m c.h.,32%
same,10DAT8 [% efficacy] (Abbott),Powdery mildew [1]; 25 g a.s./ha/m c.h.,66.7%
same,345DAT8 [% infested shoots],Powdery mildew [2]; 25 g a.s./ha/m c.h.,27.5%
same,345DAT8 [% efficacy] (Abbott),Powdery mildew [2]; 25 g a.s./ha/m c.h.,39.1%
